The record followed here is BindingDB's records for patent US20250026766 (Beigene, 2025).

In this assay the target is T1, DNA polymerase theta [1-894] (UniProt O75417).
T1 construct: 1-894
Kind of assay: Biochemical Pol Theta (1-894) ATPase IC50 Assay. The procedure:
The inhibition activities testing for the compound disclosed herein were carried out at room temperature in assay buffer containing 40 mM Tris pH 7.5, 20 mM MgCl2, 1 mM DTT, 0.01% BSA and 0.05% Tween-20. […] After 1 hour reaction, 5 μL ADP-Glo reagent (Promga V9102) was added and incubated for 40 minutes. 10 μL Kinase Detection reagent was added and incubated for 40 minutes. Luminescence was measured on a microplate reader (PHERAstar FSX, BMG labtech). The IC50 values were calculated based on inhibition of enzyme activity in the presence of increasing concentrations of compounds.

T1 sequence (O75417 1-894): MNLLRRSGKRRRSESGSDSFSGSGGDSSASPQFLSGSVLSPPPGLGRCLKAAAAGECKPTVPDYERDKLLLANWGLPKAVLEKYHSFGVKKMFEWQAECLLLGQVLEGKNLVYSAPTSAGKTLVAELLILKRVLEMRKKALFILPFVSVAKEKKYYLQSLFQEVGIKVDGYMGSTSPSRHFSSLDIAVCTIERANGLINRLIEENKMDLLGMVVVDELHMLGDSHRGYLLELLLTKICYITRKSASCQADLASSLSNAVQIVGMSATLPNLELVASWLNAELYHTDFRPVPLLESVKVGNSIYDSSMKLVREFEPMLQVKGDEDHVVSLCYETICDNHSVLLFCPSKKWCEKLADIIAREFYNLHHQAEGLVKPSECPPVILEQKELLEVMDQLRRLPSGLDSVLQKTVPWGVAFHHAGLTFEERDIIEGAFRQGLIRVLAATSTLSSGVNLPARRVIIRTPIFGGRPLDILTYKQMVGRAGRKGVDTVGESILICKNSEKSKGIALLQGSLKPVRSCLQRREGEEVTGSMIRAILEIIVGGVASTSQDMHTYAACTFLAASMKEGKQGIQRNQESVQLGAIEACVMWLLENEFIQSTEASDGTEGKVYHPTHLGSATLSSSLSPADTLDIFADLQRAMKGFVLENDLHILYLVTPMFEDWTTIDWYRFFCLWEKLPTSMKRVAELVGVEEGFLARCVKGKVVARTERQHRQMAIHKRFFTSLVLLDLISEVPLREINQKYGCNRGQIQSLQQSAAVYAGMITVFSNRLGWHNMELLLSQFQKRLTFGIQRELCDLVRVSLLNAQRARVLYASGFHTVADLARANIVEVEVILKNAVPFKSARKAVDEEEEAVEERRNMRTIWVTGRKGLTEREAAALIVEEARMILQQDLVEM

In general, IC50 refers to the concentration that gives 50% inhibition. `Cc1ccc(-c2ccc3nc(NC(=O)c4ccc(C#N)nc4N4CCOCC4)sc3n2)cc1` [US20250026766, Example 4] had an IC50 of 1560 nM.

Compound `COc1ccccc1-c1cnncc1C(=O)Nc1nc2ccc(-c3ccc(Cl)cc3OC(C)C)nc2s1` [US20250026766, Example 143] yielded a half-maximal inhibitory concentration (IC50) of 22 nM.
